Test results taken from patent publication EP0477217B1, “STABILIZED, POTENT GRF ANALOGS” (THE UPJOHN COMPANY, priority 1989, dated 1994).
Where no end group is shown, it is not given here.

Key:
[1] = tested on: release of GH by the pituitary; experiment: relative in vivo potency of GRF analogs (Table I); details: expected from the relative in vivo potency at a dose of 0.01 nmol/kg; ED50 not determined
plasma DPP-IV = format: in vitro ADME, bovine
Description: Evidence of the improved metabolic stability of the compounds of this invention (when compared to native GRF) is illustrated in Table I by the in vitro stability data provided. It is noteworthy that in bovine plasma in vitro, the analogs having […], Val², Ile² or Leu² were not cleaved after residue 2 by plasma DPP-IV under the experimental conditions used in the study (one hour plasma incubation).

Substance | potency relative to its isomer Leu2 Ala15 Leu27 bGRF(1-29)NH2, trifluoroacetate salt, when the ED50 of each is determined and compared [1] | DPP-IV related cleavage (plasma DPP-IV)
Ile² Ala¹⁵ Leu²⁷ bGRF(1-29)NH₂, trifluoroacetate salt [Cpd. No. 3] | 10-20 times | –
YTDAIFTNSYRKVLAQLSARKLLQDILNR-NH2 [Cpd. No. 1, Thr² Ala¹⁵ Leu²⁷ bGRF(1-29)NH₂, trifluoroacetate salt] | – | slight DPP-IV related cleavage
